US20080090805A1, “CB-1 MODULATING COMPOUNDS AND THEIR USE” (ACADIA PHARMACEUTICALS INC., priority 2005, published 2008)
pIC50: −log10 of the molar value. Where two headings read alike, the source gives them in different places.

Target: CB1 (mutant) (Homo sapiens, UniProt P21554)
Assay: R-SAT functional receptor assay, CB1 (mutant, truncated after amino acid 417)
Assay type: cell-based
Conditions: R-SAT CB1; for IC50 / Emax: Appendix A; for IC50 / pIC50: receptor form (mutant or wild-type) not stated; for IC50: read-out: pIC50 (converted); for Emax: receptor form not stated, relative to SR141716 (100%), read-out: % Inhibition; for pIC50: pIC50, Appendix A

Sequence of CB1 (mutant) (P21554 1-417, change not shown): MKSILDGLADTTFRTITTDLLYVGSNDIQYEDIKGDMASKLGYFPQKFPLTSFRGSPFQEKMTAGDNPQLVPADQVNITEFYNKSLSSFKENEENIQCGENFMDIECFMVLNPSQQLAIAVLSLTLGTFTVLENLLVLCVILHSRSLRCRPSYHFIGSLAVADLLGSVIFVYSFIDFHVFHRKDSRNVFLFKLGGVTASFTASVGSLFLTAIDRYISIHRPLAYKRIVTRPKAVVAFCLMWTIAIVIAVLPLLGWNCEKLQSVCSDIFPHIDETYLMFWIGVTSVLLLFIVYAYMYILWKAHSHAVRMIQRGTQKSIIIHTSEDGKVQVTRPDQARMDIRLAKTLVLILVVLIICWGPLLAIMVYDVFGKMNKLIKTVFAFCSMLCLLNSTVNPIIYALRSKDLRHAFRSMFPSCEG

Row | Structure (SMILES) | IC50 [nM] | Emax [%] | pIC50
1 | O=C(NCCc1ccccn1)c1ccc2c(c1)N=C(c1cccc(F)c1)c1ccccc1S2 | 50.1 | 91 | –
2 | CCONC(=O)c1ccc2c(c1)N=C(c1ccc(Cl)s1)c1ccccc1S2 | 50.1 | 97 | –
3 | CON(C)C(=O)c1ccc2c(c1)N=C(c1ccc(Cl)c(Cl)c1)c1ccccc1S2 | – | 0 | –
4 | CCCC1=Nc2cc(C(=O)NCc3ccccc3OC)ccc2Sc2ccccc21 | – | 91 | 7.20
5 | CCCCN(C)C(=O)c1ccc2c(c1)N=C(c1cccc(Cl)c1)c1ccccc1S2 | – | 82 | 7.10
6 | O=C(NN1CCCCC1)c1ccc2c(c1)N=C(c1ccccc1F)c1ccccc1S2 | – | 104 | 7.00
7 | CC(C)CNC(=O)c1ccc2c(c1)N=C(c1ccccc1Cl)c1ccccc1S2 | – | 86 | –
8 | CC(C)NC(=O)c1ccc2c(c1)N=C(c1ccc(Br)cc1)c1ccccc1S2 | – | 83 | –
9 | Cc1cccnc1C1=Nc2cc(C(=O)NCC(C)C)ccc2Sc2ccccc21 | – | 87 | –
10 | CCCCN(C)C(=O)c1ccc2c(c1)N=C(c1ccc(Cl)cc1F)c1ccccc1S2 | – | 84 | –
11 | COc1ccccc1C1=Nc2cc(C(=O)NCCC(C)C)ccc2Sc2ccccc21 | – | 91 | –
12 | O=C(NCc1ccncc1)c1ccc2c(c1)N=C(c1ccccc1F)c1ccccc1S2 | – | 94 | –
13 | O=C(NCc1ccco1)c1ccc2c(c1)N=C(c1ccccc1Cl)c1ccccc1S2 | – | 95 | –
14 | O=C(NCc1cccnc1)c1ccc2c(c1)N=C(c1ccccc1Cl)c1ccccc1S2 | – | 72 | –
15 | COc1ccc(C2=Nc3cc(C(=O)NC4CCCCNC4=O)ccc3Sc3ccccc32)cc1 (stereo not shown) | 251 | 62 | –
16 | O=C(NCc1ccc(F)cc1)c1ccc2c(c1)N=C(c1ccc(F)cc1)c1ccccc1N2 | – | 61 | –
17 | O=C(NC1CCCCC1)c1ccc2c(c1)N=C(c1ccccc1Cl)c1ccccc1S2 | 251 | 67 | –
18 | CCCCN(C)C(=O)c1ccc2c(c1)N=C(c1ccccc1F)c1ccccc1S2 | 251 | 77 | –
19 | O=C(NCCc1ccncc1)c1ccc2c(c1)N=C(c1ccccn1)c1ccccc1S2 | 251 | 51 | –
20 | O=C(NN1CCCCCC1)c1ccc2c(c1)N=C(c1sccc1Cl)c1ccccc1S2 | – | 82 | 7.70
21 | COCCNC(=O)c1ccc2c(c1)N=C(c1ccc(Cl)cc1Cl)c1ccccc1S2 | 316 | 69 | –
22 | CCCC1=Nc2cc(C(=O)NCCCN3CCN(c4cc(C)ccc4C)CC3)ccc2Sc2ccccc21 | 316 | 126 | –
23 | O=C(NCc1ccccn1)c1ccc2c(c1)N=C(c1ccccn1)c1ccccc1S2 | 316 | 81 | –
24 | CCCCC1=Nc2cc(C(=O)N3CCN(c4ccc(C)cc4C)CC3)ccc2Sc2ccccc21 | 316 | 104 | –
25 | O=C(NCc1cccnc1)c1ccc2c(c1)N=C(c1ccccn1)c1ccccc1S2 | 316 | 67 | –
26 | CN(NC(=O)c1ccc2c(c1)N=C(c1ccccc1F)c1ccccc1S2)C1CCCCC1 | 316 | 74 | –
27 | COc1ccccc1C1=Nc2cc(C(=O)NC3CCCCC3)ccc2Sc2ccccc21 | 316 | 72 | –
28 | O=C(NCCc1ccncc1)c1ccc2c(c1)N=C(c1ccc(Cl)cc1Cl)c1ccccc1S2 | 316 | 72 | –

Row | Structure (SMILES) | IC50 [nM] | Emax [%] | pIC50
29 | O=C(NCCc1ccncc1)c1ccc2c(c1)N=C(c1ccccc1Cl)c1ccccc1S2 | 316 | 82 | –
30 | Cc1cccnc1C1=Nc2cc(C(=O)NCc3ccco3)ccc2Sc2ccccc21 | 316 | 83 | –
31 | O=C(NCCc1cccnc1)c1ccc2c(c1)N=C(c1ccccn1)c1ccccc1S2 | 316 | 77 | –
32 | NS(=O)(=O)c1ccc(CNC(=O)C2C=C3N=C(N4CCCCC4)c4ccccc4SC3=CC2)cc1 (stereo not shown) | 398 | 78 | –
33 | O=C(NC1CCCC1)c1ccc2c(c1)N=C(c1ccccc1F)c1ccccc1S2 | 398 | 79 | –
34 | CONC(=O)c1ccc2c(c1)N=C(c1cccc(Cl)c1)c1ccccc1S2 | 398 | 89 | –
35 | CCONC(=O)c1ccc2c(c1)N=C(c1ccccc1F)c1ccccc1S2 | 398 | 73 | –
36 | CONC(=O)c1ccc2c(c1)N=C(c1ccc(Cl)s1)c1ccccc1S2 | 398 | 66 | –
37 | COCCNC(=O)c1ccc2c(c1)N=C(c1ccccn1)c1ccccc1S2 | 398 | 71 | –
38 | O=C(NNC(=O)c1ccc2c(c1)N=C(c1ccc(Cl)cc1)c1ccccc1S2)c1ccccc1 | 398 | 71 | –
39 | CCOCCNC(=O)c1ccc2c(c1)N=C(NCc1ccc(Cl)cc1)c1ccccc1S2 | – | 1 | –
40 | CCCC1=Nc2cc(C(=O)NCc3ccc(OC)cc3)ccc2Sc2ccccc21 | – | 96 | 7.60
41 | O=C(NN1CCCCC1)c1ccc2c(c1)NC(C1CCCCC1)c1ccccc1S2 (stereo not shown) | 501 | 43 | –
42 | CONC(=O)c1ccc2c(c1)N=C(c1sccc1C)c1ccccc1S2 | 501 | 45 | –
43 | CCCNC(=O)c1ccc2c(c1)N=C(c1ncccc1C)c1ccccc1S2 | 501 | 63 | –
44 | CONC(=O)c1ccc2c(c1)N=C(c1cccc(Br)c1)c1ccccc1S2 | 501 | 73 | –
45 | CONC(=O)c1ccc2c(c1)N=C(c1ccc(F)cc1)c1ccccc1S2 | 501 | 65 | –
46 | CCOC(=O)c1ccc(C2=Nc3cc(C(=O)NCc4ccncc4)ccc3Sc3ccccc32)cc1 | 501 | 69 | –
47 | CON(C)C(=O)c1ccc2c(c1)N=C(c1ccc(Cl)s1)c1ccccc1S2 | 501 | 55 | –
48 | O=C(NN1CCCCC1)c1ccc2c(c1)N=C(c1ccccc1Cl)c1ccccc1S2 | 501 | 45 | –
49 | O=C(NCc1cccnc1)c1ccc2c(c1)N=C(NCc1ccc(Cl)cc1)c1ccccc1S2 | 501 | 76 | –
50 | CC(C)NC(=O)c1ccc2c(c1)N=C(c1ccccc1Cl)c1ccccc1S2 | 631 | 46 | –
51 | O=C(c1ccc2c(c1)N=C(c1ccc(Cl)cc1)c1ccccc1S2)N1CCCCC1 | – | 95 | 7.50
52 | CCCCN(C)C(=O)c1ccc2c(c1)N=C(c1ccccc1Cl)c1ccccc1S2 | – | 40 | –
53 | O=C(NC1CCCC1)c1ccc2c(c1)N=C(c1ccc(Cl)cc1Cl)c1ccccc1S2 | – | 52 | –
54 | CC(C)NC(=O)c1ccc2c(c1)N=C(c1ccc(Cl)cc1Cl)c1ccccc1S2 | – | 45 | –
55 | O=C(NCCCC(F)(F)F)c1ccc2c(c1)N=C(c1cccc(F)c1)c1ccccc1S2 [drawing 547] | 1 | 100 | –

Continued, in another order:

Row | IC50 [nM] | Emax [%] | Structure (SMILES) | pIC50
56 | – | 87 | O=C(NN1CCCCC1)c1ccc2c(c1)N=C(C1CCCCC1)c1ccccc1C2 | –
57 | – | 85 | O=C(NN1CCCC1)c1ccc2c(c1)N=C(c1cccc(Cl)c1)c1ccccc1S2 | –
58 | – | 85 | CCCCNC(=O)c1ccc2c(c1)N=C(c1ncccc1C)c1ccccc1S2 | –
59 | – | 26 | O=C(c1ccc2c(c1)N=C(C1CCCCC1)c1ccccc1S2)N1CCCCC1 | –
60 | – | 67 | O=C(NN1CCCC1)c1ccc2c(c1)N=C(c1cccc(F)c1)c1ccccc1S2 | –
61 | – | 89 | CCCCNC(=O)c1ccc2c(c1)N=C(c1ccccc1Cl)c1ccccc1S2 | –
62 | 251 | 91 | CCCC1=Nc2cc(C(=O)N3CCN(c4cccc(C(F)(F)F)c4)CC3)ccc2Sc2ccccc21 | –
63 | 316 | 98 | CCCC1=Nc2cc(C(=O)NCCCN3CCOCC3)ccc2Sc2ccccc21 | –
64 | 316 | 117 | CCCC1=Nc2cc(C(=O)NCCCN3CCC(c4cc(Cl)ccc4C)CC3)ccc2Sc2ccccc21 | –
65 | 20 | 111 | CCCC1=Nc2cc(C(=O)NCc3ccccc3)ccc2Sc2ccccc21 | –
66 | 316 | 82 | CCCCC1=Nc2cc(C(=O)NN3CCCCC3)ccc2Sc2ccccc21 | –
67 | 398 | 91 | CCCC1=Nc2cc(C(=O)NCC3C=CC4=C(C3)OCO4)ccc2Sc2ccccc21 (stereo not shown) | –
68 | 398 | 120 | CCCC1=Nc2cc(C(=O)NCCCN3CCN(c4ccccc4F)CC3)ccc2Sc2ccccc21 | –
69 | 398 | 89 | CCOC(=O)N1CCC(NC(=O)c2ccc3c(c2)N=C(CC(C)C)c2ccccc2S3)CC1 | –
70 | 398 | 109 | CCCCN(CCCC)CCNC(=O)c1ccc2c(c1)N=C(CCC)c1ccccc1S2 | –
71 | 501 | 81 | O=C(NCc1ccncc1)c1ccc2c(c1)N=C(N1CCCCC1)c1ccccc1S2 | –

Row | IC50 [nM] | Emax [%] | Structure (SMILES) | pIC50
72 | 501 | 87 | CCCCCC1=Nc2cc(C(=O)NC3CCN(C(=O)OCC)CC3)ccc2Sc2ccccc21 | –
73 | 501 | 96 | CCCCC1=Nc2cc(C(=O)NC3CCN(C(=O)OCC)CC3)ccc2Sc2ccccc21 | –
74 | 501 | 61 | Cc1cccnc1C1=Nc2cc(C(=O)NC3CCCCC3)ccc2Sc2ccccc21 | –
75 | 25.1 | 111 | CCCCNC(=O)c1ccc2c(c1)N=C(CCC)c1ccccc1S2 | –
76 | 501 | 119 | CCCC1=Nc2cc(C(=O)NC)ccc2Sc2ccccc21 | –
77 | 631 | 77 | O=C(NN1CCOCC1)c1ccc2c(c1)N=C(c1ccc(F)cc1)c1ccccc1S2 | –
78 | 631 | 136 | CCCC1=Nc2cc(C(=O)NCCCN3CC(C)CC(C)C3)ccc2Sc2ccccc21 (stereo not shown) | –
79 | – | 76 | CCCC1=Nc2cc(C(=O)NCCN3CCN(c4cccc(Cl)c4)CC3)ccc2Sc2ccccc21 | –
80 | – | 120 | CCCC1=Nc2cc(C(=O)NCCCN(C)C3CCCCC3)ccc2Sc2ccccc21 | –
81 | – | 128 | CCCC1=Nc2cc(C(=O)NCCCN3CCCCC3CC)ccc2Sc2ccccc21 (stereo not shown) | –
82 | – | 98 | CCCC1=Nc2cc(C(=O)NCCN3CCOCC3)ccc2Sc2ccccc21 | –
83 | – | 96 | CCCC1=Nc2cc(C(=O)N3CCN(Cc4ccc5c(c4)OCO5)CC3)ccc2Sc2ccccc21 | –
84 | – | 115 | CCCC1=Nc2cc(C(=O)NCCCN3CCC(Cc4ccccc4)CC3)ccc2Sc2ccccc21 | –
85 | – | 76 | O=C(NN1CCCCC1)c1ccc2c(c1)N=C(N1CCOCC1)c1ccccc1S2 | –
86 | 39.8 | 85 | O=C(NCc1ccccc1Br)c1ccc2c(c1)N=C(C1CCCCC1)c1ccccc1S2 [drawing 548] | –
